Experimental findings from patent US20240197738A1, “COMPOUND 7AI IN TREATING EWING SARCOMA BY INHIBITING OTUD7A” (The University of North Carolina at Chapel Hill, priority 2021, published 2024) are described below.

One data set has as its system FLI1. Nature of the data set: Immunoblot of FLI1 proteins in normal control cells. Type of data set: cell-based, human. The note with it: HUVEC and FF cells, doses of 7Ai for 3 days. How it is done: (§1) Cells were lysed in EBC buffer (50 mM Tris pH 7.5, 120 mM NaCl, 0.5% NP-40) or Triton X-100 buffer (50 mM Tris pH 7.5, 150 mM NaCl, 1% Triton X-100) supplemented with protease inhibitors (Complete Mini, Roche) and phosphatase inhibitors (phosphatase inhibitor cocktail set I and II, Calbiochem). The protein concentrations of whole cell lysates were measured by NanoDrop OneC using the Bio-Rad protein assay reagent as described previously. Equal amounts of whole cell lysates were resolved by SDS-PAGE and immunoblotted with indicated antibodies. For immunoprecipitations analysis, unless specified, 1000 μg lysates were incubated with the indicated antibody (1-2 μg) for 3-4 hr at 4° C. followed by 1 hr incubation with 10 μL Protein A magnetic beads (New England Biolabs). Or 1000 μg lysates containing tagged molecules were incubated with agarose beads coupled antibodies for the specific tag for 3-4 hr at 4° C. For endogenous IPs, incubation of cell lysates with antibodies was extended to overnight. The recovered immuno-complexes were washed five times with NETN buffer (20 mM Tris, pH 8.0, 100 mM NaCl, 1 mM EDTA and 0.5% NP-40) before being resolved by SDS-PAGE and immunoblotted with indicated antibodies.
In general terms: A western blot detects proteins with antibodies after separation by electrophoresis.

Data set [1] concerns A673 cells. The data set is described as follows: Cell viability (MTT) assay, A673. It counts as cell-based, human. The conditions noted are these: A673, 3-day treatment. As for the experimental part: (§2) 2,000 indicated cells were seeded in each well of 96-well plates for MTT assays to monitor cell viability at indicated time periods using a method adapted from https://www.thermofisher.com/us/en/home/references/protocols/cell-culture/mtt-assay-protocol/vybrant-mtt-cell-proliferation-assay-kit.html. Briefly, at indicated time points post-cell seeding, 10 μL MTT solution was added into each well and incubated in the culture incubator (37° C. with 5% CO2) for 4 hrs. Then medium was removed and 100 μL DMSO was added into each well to dissolve the formazan crystal and incubated for 10 min at 37° C. After thorough mixing, absorbance at 540 nm was measured using the BioTek Cytation 5 Cell Imaging reader.

In data set [2] the test system is MHH-ES-1 cells. The data set is described as follows: 2D colony formation assay, MHH-ES-1. The note with it: MHH-ES-1, 2-week treatment (FIG. 5J). It counts as cell-based, human. How it is done: (§3) Indicated cells were seeded into 6-well plates (300 or 600 cells/well) or 6 cm dishes (500 or 1,000 cells/dish) and cultured in 37° C. incubator with 5% C02 for ˜14 days (as indicated in figure legends) until formation of visible colonies. Colonies were washed with 1×PBS and fixed with 10% acetic acid/10% methanol for 30 min, stained with 20% acidic acid/10% Methanol with 0.1% crystal violet until colonies were visibly stained. Colonies were then washed by tap water and air-dried. Colony numbers were manually counted. At least two independent experiments were performed to generate the error bars.

Another data set concerns HUVEC cells. The data set is described as follows: Cell viability (MTT) assay, HUVEC. It counts as cell-based, human. The note with it: 72 hrs (FIG. 5S). How it is done:
as §2

In data set [3] the test system is A673 cells. Nature of the data set: 2D colony formation assay, A673. Type of data set: cell-based, human. The note with it: A673, 2-week treatment. As for the experimental part:
as §3

The target of data set [4] is OTUD7A binding to EWS-FLI1 (Homo sapiens, UniProt Q8TE49). Nature of the data set: OTUD7A binding to EWS-FLI1 in cells. It counts as cell-based. How it is done:
as §1

A further data set concerns EWS-ERG. Nature of the data set: Immunoblot of EWS-ERG protein levels. Type of data set: cell-based, human. The note with it: A673 cells with EWS-ERG replacing EWS-FLI1. How it is done: as §1
A further data set deals with EWS-FLI1. Nature of the data set: Immunoblot of EWS-FLI1 protein abundance in cells. Type of data set: cell-based, human.
Another data set deals with T1, OTUD7A (Homo sapiens, UniProt Q8TE49).
T1 construct: endogenous in cells; host or cells: A673 and SK-N-MC
T1 sequence (Q8TE49 whole entry): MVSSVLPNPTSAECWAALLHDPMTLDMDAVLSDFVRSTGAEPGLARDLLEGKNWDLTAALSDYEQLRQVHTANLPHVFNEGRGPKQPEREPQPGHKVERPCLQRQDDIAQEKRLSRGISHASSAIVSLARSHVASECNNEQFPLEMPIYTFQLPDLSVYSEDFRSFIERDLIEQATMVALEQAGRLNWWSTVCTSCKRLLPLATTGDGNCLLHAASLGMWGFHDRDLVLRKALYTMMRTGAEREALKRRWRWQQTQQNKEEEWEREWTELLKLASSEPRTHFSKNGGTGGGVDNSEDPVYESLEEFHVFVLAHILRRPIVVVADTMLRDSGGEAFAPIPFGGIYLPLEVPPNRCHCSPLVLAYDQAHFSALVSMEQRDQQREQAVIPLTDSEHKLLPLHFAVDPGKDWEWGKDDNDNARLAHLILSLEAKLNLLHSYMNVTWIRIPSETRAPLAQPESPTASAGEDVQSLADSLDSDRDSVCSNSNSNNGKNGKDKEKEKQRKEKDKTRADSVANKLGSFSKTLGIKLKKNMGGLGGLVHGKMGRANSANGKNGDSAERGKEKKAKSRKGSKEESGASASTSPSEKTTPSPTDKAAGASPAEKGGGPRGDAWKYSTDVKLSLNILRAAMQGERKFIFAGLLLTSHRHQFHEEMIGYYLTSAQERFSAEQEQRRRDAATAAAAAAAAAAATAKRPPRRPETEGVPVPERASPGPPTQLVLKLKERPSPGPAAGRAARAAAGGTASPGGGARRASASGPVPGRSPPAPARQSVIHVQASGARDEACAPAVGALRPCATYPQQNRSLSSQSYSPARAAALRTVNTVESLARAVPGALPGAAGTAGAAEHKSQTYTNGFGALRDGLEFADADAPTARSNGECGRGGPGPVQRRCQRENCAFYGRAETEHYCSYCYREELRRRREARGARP
Nature of the data set: Immunoblot of OTUD7A protein levels in Ewing cells. It counts as cell-based. The conditions noted are these: A673 and SK-N-MC cells, 10 μM, 12 hrs. How it is done:
as §1
Each compound was dissolved in DMSO with a concentration of 10 mM. […]

In a further data set the test system is Ewing sarcoma cell. The data set is described as follows: Ewing sarcoma cell growth in vitro (effective dose). It counts as cell-based, human. How it is done:
as §2

Data set [5] has as its system MHH-ES-1 cells. Nature of the data set: Cell viability (MTT) assay, MHH-ES-1. It counts as cell-based, human. The conditions noted are these: MHH-ES-1, 3-day treatment. As for the experimental part:
as §2

The subject of a further data set is A673^3A cells. The data set is described as follows: Cell viability (MTT) assay, A673^3A knockin. It counts as cell-based, human. The note with it: 3-day treatment (FIG. 5I). As for the experimental part:
Parental A673 cells were splitted into 24-well plates and transfected with sgRNA against EWS-FLI1 together with EWS-FLI1-3A-ssoDNA following protocols as described. 1-day post-transfection, cells were selected with 1 μg/ml puromycin for 3 days. Surviving cells were counted and each single cell was seeded into 96-well plates. Each single clone grown up in 96-well plates was amplified and one copy was used for genomic DNA extraction, followed by PCR and BpmI digestion to screen for potential knockin clones. BpmI negative clones are selected and sequenced to verify the knockin at the DNA level. 3 isogenic knockin clones were selected and saved.
as §2

The subject of data set [6] is A673 cells. Nature of the data set: Transwell migration assay, A673. It counts as cell-based, human. The conditions noted are these: A673 cells in vitro. As for the experimental part: 1×10^5 cells were plated in an […], 24-well plate chamber insert (Corning Life Sciences, catalog no. 3422) with serum free DMEM medium at the top of the insert and the same medium containing 20% fetal bovine serum (FBS) at the bottom of the insert. Cells were incubated for 24 hr and fixed with 4% paraformaldehyde for 15 min. After washing with PBS, cells at the top of the insert were scraped with a cotton swab. Cells adherent to the bottom were stained with 0.5% crystal violet blue for 60 min and then washed with double-distilled H2O (ddH2O). The positively stained cells were examined under the microscope.

The structures appear in SMILES notation.

Chain of OTUD7A binding to EWS-FLI1 (Q8TE49 whole entry): as above

Take `Cn1nccc1-c1cc(-c2ccnn2C)n2nc(C(=O)Nc3cnn(Cc4c(Cl)cccc4Cl)c3)cc2n1` [7Ai]: the FLI1 proteins entry in the data set with FLI1 was “minimal effects on FLI1 proteins”. The “proliferation (cell viability)” value is “reduced proliferation” in the data set on A673 cells [1], “neglectable effects” with HUVEC cells, “reduced MHH-ES-1 proliferation” with MHH-ES-1 cells [5] and “not observed” in the data set on A673^3A cells. For the same molecule, the colony formation ability result in the data set on MHH-ES-1 cells [2] and with A673 cells [3] was “reduced colony formation ability” throughout. For the same molecule, the “OTUD7A binding to EWS-FLI1” value in [4] is given as “did not interfere with OTUD7A binding to EWS-FLI1”. Also, the EWS-ERG protein levels entry with EWS-ERG was “reduced EWS-ERG protein levels”. Besides, the EWS-FLI1 protein abundance result in the data set with EWS-FLI1 (A673-teton-shOTUD7A cells) is “reduced EWS-FLI1 protein abundance in A673-teton-shOTUD7A”; in the data set with EWS-FLI1 (A673 and MHH-ES-1 cells, doses of 7Ai for 3 days) it was “efficiently reduced EWS-FLI1 protein abundance in both Ewing sarcoma cells”; with EWS-FLI1 (parental A673 cells, 10 μM, 12 hrs (FIG. 5D)), “reduced EWS-FLI1 protein abundance in parental A673”. Besides, in the data set with EWS-FLI1 (A673 and SK-N-MC cells, 10 μM, 12 hrs), the EWS-FLI1 protein levels entry is “reduced EWS-FLI1 protein levels in both Ewing cells”. Moreover, the “EWS-FLI1 protein levels, dose dependence” value with EWS-FLI1 (A673 cells, indicated doses, 12 hrs (FIG. 5B)) is “reduced EWS-FLI1 protein levels in a dose-dependent manner”. The EWS-FLI1 protein expression entry in the data set with EWS-FLI1 (MHH-ES-1, EWS894 (FIG. 5E, 12 hrs), SK-N-MC and EWS502 cells) is “efficiently reduced EWS-FLI1 protein expression”. For the same molecule, the OTUD7A protein levels result at OTUD7A is listed as “without affecting OTUD7A protein levels”. Also, in the data set on Ewing sarcoma cell, the “effective dose in retarding Ewing sarcoma cell growth in vitro” value was “about 10 μM”. Further, in the data set on A673 cells [6], the cell migratory ability result is given as “significantly reduced A673 cell migratory ability”.
